A short description of data set [1]: Bulk and tapped density analyses according to USP, with calculated compressibility index and Hausner ratio. The format is physicochemical. The procedure: Bulk and tapped density analyses of DUR sodium salt were performed according to USP and the compressibility index (CI) and Hausner ratio was calculated. Typically, a material is considered to have poor flowability if the Hausner ratio is greater than 1.25 and/or if the CI is greater than 25. See e.g., Leroy A. Sherrington, Amal Sherrington, in Analytical Profiles of Drug Substances and Excipients, 1998. […] These experimental values are consistent with the observed powder adhesion.
It has now been found, however, that co-lyophilizing durlobactam sodium salt and sulbactam sodium salt improved flow properties compared to lyophilized durlobactam sodium alone. Initial experiments involved dissolving a 1:1 w/w mixture of durlobactam sodium salt and sulbactam sodium salt in water-for-injection and optimizing the bulk lyophilization conditions (per scale).

Data set [2] is described as follows: Dry powder filling / machinability trials: powder adhesion to filling equipment. The following applies: machine filling of glass vials. The format is physicochemical. The text has this: Initial attempts to formulate a fixed dosage comprised dry powder filling both DUR sodium salt and SUL sodium salt in glass vials. […] The drawback leads to unreliable and inconsistent product dosing. […] See e.g., the Exemplification section below.
Attempts to develop a commercially feasible fixed-dose combination of durlobactam and sulbactam by dry powder filling both DUR sodium salt and SUL sodium salt (as a 1:1 w/w mixture of each salt form) in glass vials were not successful because of the highly hygroscopic, poor flow properties of DUR sodium salt. […] See e.g., FIG. 1, showing the DUR sodium salt powder residue from the centralized suction and on the feeding chute observed during machinability trials. See also FIG. 2 which depicts the appearance of the DUR sodium salt powder filled product.

For data set [3], the system named is class A, C, and D β-lactamases. The conditions noted are these: cited from earlier work.
The next data set deals with Enterobacteriaceae. The conditions noted are these: in vitro; cited from earlier work.
Data set [4] relates to A. baumannii complex (ABC) isolates. The following applies: cited from earlier work.
[5] abbreviates: calculated from bulk and tapped density.

As to `CC1=C[C@@H]2CN(C(=O)N2OS(=O)(=O)[O-])[C@@H]1C(N)=O.[Na+]` [DUR-Na salt, Durlobactam], in data set [1], the Bulk density is 0.38 g/mL; the “Flowability as indicated by Hausner ratio and CI” value is on record as “extremely poor flowing material”; the Tapped density was 0.61 g/mL. For the same molecule, in data set [1] (setting [5]), the “CI (compressibility index)” value is on record as 38% and the Hausner ratio was 1.6. Further, in data set [1] (calculated from bulk and tapped density, listed as DUR sodium salt), the Hausner ratio is above 1.6. Besides, in data set [2], the “Powder adhesion to the parts of the filling equipment” value is “significant powder adhesion”.

Take `CC1=C[C@@H]2CN(C(=O)N2OS(=O)(=O)O)[C@@H]1C(N)=O` [Durlobactam]: the “Inhibition of β-lactamases” value in data set [3] is “potent inhibition”. Further, the Intrinsic antibacterial activity result with Enterobacteriaceae is given as “intrinsic antibacterial activity against some Enterobacteriaceae”. For the same molecule, the “Restoration of in vitro activity of sulbactam” value in data set [4] (in combination with sulbactam) is recorded as “restores the in vitro activity of sulbactam”. The Intrinsic activity result in data set [4] (in vitro, durlobactam alone) is given as “no significant intrinsic activity”.

The record behind these values is patent publication US20250352521A1, “FIXED DOSAGE ANTIBIOTIC COMPOSITIONS” (Entasis Therapeutics Limited, priority 2021, published 2025).
